These molecules were tested against D(1A) dopamine receptor (Rattus norvegicus) (UniProt P18901). Conditions: Striatum.
D(1A) dopamine receptor (Rattus norvegicus), sequence (P18901 whole entry): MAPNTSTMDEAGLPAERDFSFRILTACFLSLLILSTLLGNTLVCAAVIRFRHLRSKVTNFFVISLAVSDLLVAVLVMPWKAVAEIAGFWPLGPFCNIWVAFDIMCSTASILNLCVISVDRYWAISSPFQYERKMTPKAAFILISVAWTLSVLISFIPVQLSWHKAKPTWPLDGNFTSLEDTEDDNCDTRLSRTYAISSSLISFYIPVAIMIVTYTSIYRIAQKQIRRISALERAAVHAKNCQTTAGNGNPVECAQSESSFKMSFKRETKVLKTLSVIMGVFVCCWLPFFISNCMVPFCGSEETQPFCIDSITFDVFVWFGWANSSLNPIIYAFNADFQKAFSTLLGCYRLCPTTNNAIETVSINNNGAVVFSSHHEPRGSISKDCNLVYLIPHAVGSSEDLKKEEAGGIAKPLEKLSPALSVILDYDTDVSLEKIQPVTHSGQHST
Description: Affinity towards dopamine receptor D1 in rat corpus striatum tissue.

SMILES | -Log K0.5
CN(C)CCCCCCN1CCc2cc(Cl)c(O)cc2C(c2ccccc2)C1 (stereo not given) | 6.94
CN1CCc2cc(Cl)c(O)cc2C2c3ccccc3CCC21 (stereo not given) | 8.3
CCCNC1CCc2ccc(O)cc2C1c1ccccc1 (stereo not given) | 6.02
Cc1ccccc1C1c2cc(O)c(Cl)cc2CCN1C (stereo not given) | 8.43
Cc1cccc(C2c3cc(O)c(Cl)cc3CCN2C)c1C (stereo not given) | 8
CN(C)C1CCc2ccc(O)cc2C1c1ccccc1 (stereo not given) | 5.85
CN1CCc2ccccc2C2c3cc(O)c(I)cc3CCC21 (stereo not given) | 5.96
CN1CCc2cc(Cl)c(O)cc2C1Cc1ccccc1 (stereo not given) | 7.24
NC1CCc2ccc(O)cc2C1c1ccccc1 (stereo not given) | 5.53
CCCN(C)C1CCc2ccc(O)cc2C1c1ccccc1 (stereo not given) | 5.82
CN1CCc2cc(Cl)c(O)cc2[C@@H](c2ccccc2)C1 | 9.4
CNC1CCc2ccc(O)cc2C1c1ccccc1 (stereo not given) | 5.46
CN1CCc2ccc(O)cc2C1c1ccccc1 (stereo not given) | 6.37

More lines, now with the values ahead:

-Log K0.5 | SMILES
8.43 | CN1CCc2cc(Cl)c(O)cc2C1c1ccccc1Cl (stereo not given)
8.28 | CN1CCc2cc(Cl)c(O)cc2C1c1ccccc1 (stereo not given)
7.97 | CN1CCc2cc(Br)c(O)cc2C1c1ccccc1 (stereo not given)
8.43 | Cc1cccc(C)c1C1c2cc(O)c(Cl)cc2CCN1C (stereo not given)
8.56 | CC(C)c1ccccc1C1c2cc(O)c(Cl)cc2CCN1C (stereo not given)
5.68 | Oc1cc2c(cc1Cl)CCN1CCc3ccccc3C21 (stereo not given)
7.43 | CN(C)c1ccccc1CCN1CCc2cc(Cl)c(O)cc2C(c2ccccc2)C1 (stereo not given)
6.86 | CNCCCCCCN1CCc2cc(Cl)c(O)cc2C(c2ccccc2)C1 (stereo not given)
8.28 | Cc1ccc(C2c3cc(O)c(Cl)cc3CCN2C)cc1 (stereo not given)
7.54 | CN(C)c1ccccc1/C=C/N1CCc2cc(Cl)c(O)cc2C(c2ccccc2)C1 (stereo not given)
8.38 | Cc1cccc(C2c3cc(O)c(Cl)cc3CCN2C)c1 (stereo not given)
7.05 | CCCN1CCc2cc(Cl)c(O)cc2C1c1ccccc1 (stereo not given)

— ChEMBL document CHEMBL1132350, “Quantitative structure-activity relationship modeling of dopamine D(1) antagonists using comparative molecular field analysis, genetic algorithms-partial least-squares, and K nearest neighbor methods” (J Med Chem, 1999)
